From US20240279232A1, “USE OF SUBSTITUTED 5-(4-METHYL-6-PHENYL-4H-BENZO[F]IMIDAZO[1,5-A][1,4] DIAZEPIN-3-YL)-1,2,4-O[…] THE TREATMENT OF INFLAMMATORY CONDITIONS” (priority 2021, published 2024)
Where two headings read alike, the source gives them in different places.

Legend:
MOR (μ opioid receptor) = target: T1, MOR (μ opioid receptor) (Homo sapiens, UniProt P35372); assay: MOR radioligand binding ([3H]-DAMGO, HEK293 cell homogenates); settings: Percent inhibition at 10,000 nM; [3H]-DAMGO
T1 construct: expressed in transfected cells; host or cells: HEK293
T1 sequence (P35372 whole entry, species assumed): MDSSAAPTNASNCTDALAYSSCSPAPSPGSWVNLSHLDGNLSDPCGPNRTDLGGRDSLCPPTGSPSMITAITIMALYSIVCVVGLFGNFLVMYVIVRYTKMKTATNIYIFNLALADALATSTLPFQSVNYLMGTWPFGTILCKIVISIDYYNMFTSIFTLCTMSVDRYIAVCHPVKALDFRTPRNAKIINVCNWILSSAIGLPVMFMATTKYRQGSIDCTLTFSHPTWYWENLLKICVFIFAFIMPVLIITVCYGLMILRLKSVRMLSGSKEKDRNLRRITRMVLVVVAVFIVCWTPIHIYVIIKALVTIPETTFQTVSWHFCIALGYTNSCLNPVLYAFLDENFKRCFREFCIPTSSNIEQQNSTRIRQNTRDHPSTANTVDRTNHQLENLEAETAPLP
Procedure: (§1) Radioligand binding assays. Detailed protocols for the primary and secondary radioligand binding assays can be found in the National Institute of Mental Health's Psychoactive Drug Screening Program (NIMH PDSP) Assay Protocol Book (Roth, 2018). Briefly, primary and secondary radioligand binding assays are carried out in a final of volume of 125 μL per well in appropriate binding buffer. […] Total binding and nonspecific binding are determined in the absence and presence of 10 μM of appropriate reference compound (Naltrindole DOR, Salvinorin A KOR and DAMGO MOR). In brief, plates are usually incubated at room temperature and in the dark for 90 min. Reactions are stopped by vacuum filtration onto 0.3% polyethyleneimine (PEI) soaked 96-well filter mats using a 96-well Filtermate harvester, followed by three washes with cold PBS buffer. Scintillation cocktail is then melted onto the microwave-dried filters on a hot plate and radioactivity counted in a Microbeta counter. The data (n=6) were analyzed by nonlinear regression.
(§2) Ligand affinities were determined for KOR (κ opioid receptor), DOR (δ opioid receptor), and MOR (μ opioid receptor) using radioligand binding assays at a screening concentration of 10,000 nM. For these assays, cell homogenates from HEK293 cells that overexpressed KOR, MOR, and DOR were used in combination with [^3H]-U69593, [^3H]-DAMGO, and [^3H]-DADLE, respectively Compounds that exceeded more than 50% radioligand displacement were investigated further in concentration-dependent experiments to determine Ki values. Gamma aminobutyric acid type A receptor (GABAAR) binding was determined with rat brain homogenate and ^3H-flunitrazepam. Flunitrazepam binds GABAAR subtypes that consists of two α and two β subunits and one γ or δ subunit. Strong affinities to α1-3,5,6β1-3γ1-y/δ GABAARS have been reported for flunitrazepam. The […] GABAAR subtype expression in the brain includes 43% α1β2γ2, 15% α2β3γ2+8% α2βγ1, 10% α3β3γ2, 6% α4βγ/δ, 4% α5β3γ2, and 4% α6β2γ2/δ. Therefore, compounds with high affinity toward the synaptic benzodiazepine-sensitive receptors (BZR) predominately bind α1-3β2-3γ1-2 GABAARs. Alternatively, compounds with weak BZR binding might be selective for α4-6βγ/δ GABAARs.
(§3) Psychoactive Drug Screening Program. Detailed protocols for the primary and secondary radioligand binding assays can be found in the National Institute of Mental Health's Psychoactive Drug Screening Program (NIMH PDSP) Assay Protocol Book. Briefly, primary and secondary radioligand binding assays are carried out in a final of volume of 125 μL per well in appropriate binding buffer. The radioactive ligand concentration is close to the Kd. Total binding and nonspecific binding are determined in the absence and presence of 10 μM of appropriate reference compound, respectively. In brief, plates are usually incubated at room temperature and in the dark for 90 min. Reactions are stopped by vacuum filtration onto 0.3% polyethyleneimine (PEI) soaked 96-well filter mats using a 96-well Filtermate harvester, followed by three washes with cold PBS buffer. Scintillation cocktail is then melted onto the microwave-dried filters on a hot plate and radioactivity counted in a Microbeta counter. The data (n=6) were analyzed by nonlinear regression.

Mouse microglia [1] = assay: NO production (Griess assay), LPS/IFNγ-activated mouse microglia; assay type: cell-based; settings: for inhibition at 50 µM / inhibition at 10 µM: Mus musculus, Microglia, 24 h; for Inhibition of NO production (%) Mouse microglia 50 μM: 24 hours, 1 μM GABA, LPS/IFNγ
Procedure: (§4) Next, a library of GABAAR ligands was investigated to identify compounds that reduce the production of NO as a marker of anti-inflammatory activity. […] NO was quantified with a Greiss assay. Cell viability was determined with CellTiter-Glo.
Cell culture. A) HMC3 Microglia (CRL-3304) were maintained in treated cell culture flasks (Nunc, 156472) with EMEM (Corning, 10010CV) supplemented with 10% heat-inactivated FBS (Corning, 35011CV) and 100 U/mL penicillin and 100 μg/mL streptomycin (Hyclone, SV30010). Cultures were maintained at 37° C. and 5% CO2. When cells reached a density of 7×10^4 cells/mL, cultures were passaged with 0.25% Trypsin (Corning, 25-053-CI) and resuspended to a density no lower than 10,000 cells/mL. B) Human and mouse microglia cell lines were a gift from Dr. David Alvarez-Carbonell at Case Western Reserve University (Cleveland, OH). Microglia were cultured in cell culture treated flasks (Nunc, 156472) with DME/F12 media (Hyclone, SH30023.01) supplemented with 10% heat-inactivated FBS (Corning, 35011CV), 100 U/mL penicillin/100 μg/mL streptomycin (Hyclone, SV30010), and Normocin (Invivogen, ant-nr). Cultures were maintained at 37° C. and 5% CO2. […] Cultures were maintained at 37° C. and 5% CO2. Cells were passaged when they reached a density of approximately 3×10^6 cells/mL using cell scrapers (VWR, 10062-906) to lift cells from flask surface and resuspended at densities of approximately 500,000 cells/mL.
(§5) Nitric oxide production (Griess assay) and viability assay (CellTiter-Glo). 80 μL of mouse microglia culture (1×10^6 cells/mL) was plated into sterile 384 well plates representing non-activated wells. The remaining culture was activated with 50 ng/ml LPS (Invivogen, NC9836) and 150 U/mL IFNγ (R&D Systems, 485MI100) and distributed into the 384 well plates. […] Assay plates were incubated for approximately 24 hours (unless otherwise noted) at 37° C., centrifuged, and 40 μL of supernatant transferred to a new plate for analysis using the Griess Assay (Promega, Madison, WI). Absorbance at 530 nm was measured using a TECAN Infinite M1000 plate reader. The remaining 40 μL containing cells was analyzed for toxicity by the CellTiter-Glo Assay (Promega, Madison, WI). Luminescence was read using a TECAN Infinite M1000 plate reader.

KOR (κ opioid receptor) = target: T2, KOR (κ opioid receptor) (Homo sapiens, UniProt P41145); assay: KOR radioligand binding ([3H]-U69593, HEK293 cell homogenates)
T2 construct: expressed in transfected cells; host or cells: HEK293 (stably transfected)
T2 sequence (P41145 whole entry): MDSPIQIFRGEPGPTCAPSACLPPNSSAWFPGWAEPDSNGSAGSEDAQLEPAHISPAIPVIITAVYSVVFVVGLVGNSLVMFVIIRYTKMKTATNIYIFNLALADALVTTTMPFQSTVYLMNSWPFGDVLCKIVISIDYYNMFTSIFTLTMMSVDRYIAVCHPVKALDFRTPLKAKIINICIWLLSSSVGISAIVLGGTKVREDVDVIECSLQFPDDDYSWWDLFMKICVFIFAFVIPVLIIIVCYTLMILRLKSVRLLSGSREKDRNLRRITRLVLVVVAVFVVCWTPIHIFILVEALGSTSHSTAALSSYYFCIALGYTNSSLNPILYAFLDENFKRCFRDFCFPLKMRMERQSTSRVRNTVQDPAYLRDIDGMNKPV
Procedure: as §1, §2, §3

DOR (δ opioid receptor) = target: T3, DOR (δ opioid receptor) (Homo sapiens, UniProt P41143); assay: DOR radioligand binding ([3H]-DADLE, HEK293 cell homogenates); settings: Percent inhibition at 10,000 nM; [3H]-DADLE
T3 construct: expressed in transfected cells; host or cells: HEK293
T3 sequence (P41143 whole entry): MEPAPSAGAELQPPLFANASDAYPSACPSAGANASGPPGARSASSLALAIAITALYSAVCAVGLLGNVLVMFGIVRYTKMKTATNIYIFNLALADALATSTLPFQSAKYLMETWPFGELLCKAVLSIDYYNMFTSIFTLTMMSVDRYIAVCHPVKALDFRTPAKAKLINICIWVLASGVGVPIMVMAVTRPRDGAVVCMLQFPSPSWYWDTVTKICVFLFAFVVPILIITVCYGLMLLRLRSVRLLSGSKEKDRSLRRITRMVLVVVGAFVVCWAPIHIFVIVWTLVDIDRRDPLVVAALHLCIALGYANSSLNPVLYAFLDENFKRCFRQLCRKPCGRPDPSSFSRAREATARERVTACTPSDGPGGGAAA
Procedure: as §1, §2, §3

[2] = tested on: BZR (benzodiazepine site of GABAAR); assay: GABAAR/BZR binding, rat brain homogenate with 3H-flunitrazepam; settings: rat brain homogenate, 3H-flunitrazepam; for BZR %: Percent inhibition at 10,000 nM
Procedure: as §2, §3

Mouse microglia [3] = assay: Cell viability (CellTiter-Glo), mouse microglia; assay type: cell-based; settings: 50 μM, CellTiter-Glo
Procedure: as §4, §5

RAW macrophages = assay: NO production (Griess assay), LPS/IFNγ-activated RAW264.7 macrophages; assay type: cell-based, mouse; settings: Mus musculus, Macrophage, 24 h
HEPG2 = assay: Viability assay (CellTiter-Glo), HEPG2; assay type: cell-based, human; settings: 120 μM, CellTiter-Glo
Procedure: (§6) The screen identified several compounds that reduced NO in activated microglia and macrophages. The tested compounds included achiral and chiral imidazodiazepines and benzodiazepines. In general, microglia were more sensitive to compound treatment with more pronounced reduction of NO than macrophages. […] Cell viability assays with HEK293 (kidney) and HepG2 (liver) cells were conducted in a concentration dependent manner. A limited number of compounds, such as GL-III-63, GL-III-76A, and GL-III-77, were toxic at 120 μM.
(§7) Viability assay. Human liver hepatocellular carcinoma (HEPG2) and human embryonic kidney 293T (HEK293T) cell lines were purchased (ATCC) and cultured in 75 cm^2 flasks (CellStar). Cells were grown in DMEM/High Glucose (Hyclone, #SH3024301) media to which non-essential amino acids (Hyclone, #SH30238.01), 10 mM HEPES (Hyclone, #SH302237.01), 5×10^6 units of penicillin and streptomycin (Hyclone, #SV30010), and 10% of heat inactivated fetal bovine serum (Gibco, #10082147) were added. Cells were harvested using 0.05% Trypsin (Hyclone, #SH3023601), washed with PBS, and dispensed into sterile white, optical bottom 384-well plates (NUNC, #142762). After three hours, small molecule DMSO solutions were transferred with a Tecan Freedom EVO liquid handling system equipped with a 100 nL pin tool (V&P Scientific). The controls were 3-dibutylamino-1-(4-hexyl-phenyl)-propan-1-one (25 mM in DMSO, positive control) and DMSO (negative control). The cells were incubated for 48 hours followed by the addition of CellTiter-Glo™, a luminescence-based cell viability assay (Promega, Madison, WI). All luminescence readings were performed on a Tecan Infinite M1000 plate reader. The assay was carried out in quadruplet with two independent runs. The data were analyzed by nonlinear regression.

HEK293 = assay: Viability assay (CellTiter-Glo), HEK293; assay type: cell-based, human; settings: 120 μM, CellTiter-Glo
Procedure: as §6, §7

[4] = Percent inhibition at 10,000 nM, [3H]-U69593
[5] = concentration-dependent, [3H]-U69593, read-out: KOR (Ki)

| SMILES | inhibition at 10 µM (MOR (μ opioid receptor)) [%] | inhibition at 50 µM (Mouse microglia [1]) [%] | Ki (KOR (κ opioid receptor)) [nM] | inhibition at 10 µM (KOR (κ opioid receptor); [4]) [%] | inhibition at 10 µM (DOR (δ opioid receptor)) [%] | BZR % [2] [%] | Ki [2] [nM] | Cell viability (%) Mouse microglia 50 μM (Mouse microglia [3]) [%] | inhibition at 10 µM (Mouse microglia [1]) [%] | inhibition at 10 µM (RAW macrophages) [%] | Cell viability (%) HEPG2 120 μM (HEPG2) [%] | Cell viability (%) HEK293 120 μM (HEK293) [%] | Inhibition of NO production (%) Mouse microglia 50 μM (Mouse microglia [1]) [%] | Ki (KOR (κ opioid receptor); [5]) [nM] | MOR % (MOR (μ opioid receptor)) [%] | KOR % (KOR (κ opioid receptor); [4]) [%] | DOR % (DOR (δ opioid receptor)) [%] |
| --- | --- | --- | --- | --- | --- | --- | --- | --- | --- | --- | --- | --- | --- | --- | --- | --- | --- |
| C#Cc1ccc2c(c1)C(c1ccccc1F)=N[C@@H](C)c1c(-c3nc(C)no3)ncn1-2 [GL-I-65, (S)-5-(8-Ethynyl-6-(2-fluorophenyl)-4-methyl-4H-benzo[f]imidazo[1,5-a][1,4]diazepin-3-yl)-3-methyl-1,2,4-oxadiazole] | 2 | 19 ± 9 | 222 | 88 | 7 | 79 | 1150 | 100 ± 12 | – | – | – | – | – | – | – | – | – |
| C#Cc1ccc2c(c1)C(c1ccccc1F)=N[C@@H](C)c1c(-c3nc(CC)no3)ncn1-2 [GL-I-66, (S)-3-Ethyl-5-(8-ethynyl-6-(2-fluorophenyl)-4-methyl-4H-benzo[f]imidazo[1,5-a][1,4]diazepin-3-yl)-1,2,4-oxadiazole] | 28 | 86 ± 11 | 212 | 92 | 2 | 80 | 654 | 71 ± 9 | 5 ± 2 | – | – | – | – | – | – | – | – |
| C#Cc1ccc2c(c1)C(c1ccccn1)=N[C@H](C)c1c(C(=O)OCC)ncn1-2 [GL-II-19] | 17 | – | – | 44 | 2 | 71 | 1140 | 100 ± 11 | 32 ± 4 | 2 ± 2 | 100 ± 9 | 90 ± 5 | – | – | – | – | – |
| C#Cc1ccc2c(c1)C(c1ccccc1F)=NCc1c(-c3nc(C)no3)ncn1-2 [GL-III-23] | – | – | – | – | – | – | – | 100 ± 2 | – | – | 90 ± 13 | 65 ± 5 | 28 ± 5 | – | – | – | – |
| Cc1noc(-c2ncn3c2[C@@H](C)N=C(c2ccccn2)c2cc(C4CC4)ccc2-3)n1 [GL-III-64] | 7 | 26 ± 10 | 2050 | 60 | 14 | 92 | 1490 | 96 ± 10 | – | – | 75 ± 10 | 75 ± 8 | – | – | – | – | – |
| C#Cc1ccc2c(c1)C(c1ccccc1F)=NCc1c(-c3cnco3)ncn1-2 [KRM-II-18B] | 11 | 0 | – | 89 | 20 | 97 | 38 | 100 ± 3 | – | – | – | – | – | 361 | – | – | – |
| C#Cc1ccc2c(c1)C(c1ccccn1)=NCc1c(-c3cnco3)ncn1-2 [KRM-II-81] | – | – | – | – | – | 86 | 294 | 100 ± 5 | – | – | 100 ± 12 | 96 ± 11 | 0 ± 1 | – | 7 | 46 | 15 |
| C#Cc1ccc2c(c1)C(c1ccccc1)=NCc1c(-c3cnco3)ncn1-2 [KRM-II-82] | 5 | 0 | – | 78 | 20 | 95 | 96 | 100 ± 6 | – | – | – | – | – | 1200 | – | – | – |
| C#Cc1ccc2c(c1)C(c1ccccn1)=NCc1c(-c3nc(CC)no3)ncn1-2 [MP-III-080] | 0 | 0 | – | 47 | 0 | 88 | 303 | 100 ± 14 | – | – | – | – | – | – | – | – | – |
| C#Cc1ccc2c(c1)C(c1ccccc1)=NCc1c(C(=O)NC)ncn1-2 [YT-III-31] | – | – | – | – | – | – | – | 100 ± 8 | – | – | 100 ± 7 | 96 ± 10 | 0 ± 2 | – | – | – | – |
| C#Cc1ccc2c(c1)C(c1ccccc1F)=NCc1c(C(=O)OCCCOC(=O)c3ncn4c3CN=C(c3ccccc3F)c3cc(C#C)ccc3-4)ncn1-2 [YT-III-271] | – | – | – | – | – | – | – | 100 ± 3 | – | – | – | – | 0 ± 4 | – | – | – | – |
